Results published in PubChem BioAssay (NCI).
“And” between values parts separate entries of the source, which are not always exact repeats. Equal values may be shown once.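 Grown in 96-well plates, cells were treated for 48 hours with each compound at five concentrations. Insufficient inhibition: endpoint recorded as highest concentration tested. GI50 marks 50% less growth. TGI: concentration producing complete growth inhibition.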

Experiments:
Assay in all cases: NCI tumour cell line growth inhibition, 48 h
[1] = system: NCI/ADR-RES ovarian
[2] = system: MDA-MB-435
[3] = system: SN12K1 renal
[4] = system: DU-145 prostate
[5] = system: P388 leukemia
[6] = system: MCF7 breast
[7] = system: P388/ADR leukemia
[8] = system: SW-620 colon
[9] = system: PC-3 prostate
[10] = system: BT-549 breast
[11] = system: LXFL 529 NSCLC
[12] = system: MDA-MB-231 breast
[13] = system: MDA-N
[14] = system: T-47D breast
[15] = system: HS 578T breast
[16] = system: OVCAR-4 ovarian
[17] = system: HOP-92 NSCLC
[18] = system: HL-60(TB) leukemia
[19] = system: UO-31 renal
[20] = system: EKVX NSCLC
[21] = system: 786-0 renal
[22] = system: A498 renal
[23] = system: RXF 393 renal
[24] = system: KM20L2 colon
[25] = system: TK-10 renal
[26] = system: DLD-1 colon
[27] = system: NCI-H460 lung
[28] = system: MALME-3M melanoma
[29] = system: SN12C renal
[30] = system: COLO 205 colon
[31] = system: M19-MEL melanoma
[32] = system: SR leukemia
[33] = system: CAKI-1 renal
[34] = system: SK-MEL-5 melanoma
[35] = system: SNB-78 CNS
[36] = system: MOLT-4 leukemia
[37] = system: SF-295 CNS
[38] = system: SF-539 CNS
[39] = system: SNB-19 CNS
[40] = system: HCC-2998 colon
[41] = system: SF-268 CNS
[42] = system: UACC-62 melanoma
[43] = system: ACHN renal
[44] = system: DMS 273 small cell lung
[45] = system: SK-MEL-28 melanoma
[46] = system: UACC-257 melanoma
[47] = system: OVCAR-3 ovarian
[48] = system: M14 melanoma
[49] = system: HCT-116 colon
[50] = system: SNB-75 CNS
[51] = system: OVCAR-5 ovarian
[52] = system: SK-MEL-2 melanoma

**Q.** Which results are given for `COc1cccc2c1C(=O)c1c(O)c3c(c(O)c1C2=O)C[C@@](O)(C(C)=O)C[C@@H]3OC1CC(N(Cc2ccccc2)Cc2ccccc2)C(O)C(C)O1` (stereo not given in full)?
**A.** TGI [1]: > 37500 nM; TGI [2]: 14 µM; TGI [3]: > 46900 nM; TGI [4]: > 28100 nM; TGI [5]: 12.3 µM; TGI [6]: > 36 µM; TGI [7]: > 50 µM; GI50 [8]: < 10 nM and 86.9 nM; TGI [9]: > 28100 nM; TGI [10]: > 50 µM; GI50 [11]: < 10 nM; TGI [12]: > 28100 nM; TGI [13]: > 23.2 µM; TGI [14]: > 28.1 µM; TGI [15]: > 50000 nM

**Q.** What does the source list for `CC1OC(O[C@@H]2C=C3CC[C@@H]4[C@H](CC[C@]5(C)[C@@H](c6ccc(=O)oc6)CC[C@]45O)[C@@]3(C)CC2)C(O)C(O)C1O` (stereo not given in full)?
**A.** TGI [16]: 2.24 nM and 3.65 nM; TGI [17]: 3 nM and 0.676 nM; GI50 [18]: 1.5 nM and 5.92 nM; TGI [19]: 2.05 nM; TGI [20]: 3 nM and 1.08 nM; TGI [1]: 3 nM and 0.304 nM; GI50 [21]: 0.0706 nM; GI50 [22]: 1.27 nM; GI50 [23]: 1.12 nM and 8.94 nM; TGI [23]: 1.99 nM; GI50 [2]: 0.482 nM; TGI [2]: 0.013 µM; GI50 [24]: 1.31 nM; TGI [25]: 9.39 nM and 6 nM; GI50 [26]: 0.621 nM; TGI [26]: 3 nM; TGI [27]: 3 nM and 0.49 nM; GI50 [3]: 0.941 nM; TGI [3]: 3 nM; TGI [28]: 2.38 nM and 1.39 nM; TGI [4]: 15.3 nM; TGI [29]: 3 nM and 18.9 nM; TGI [30]: 20.8 nM and 47.7 nM; GI50 [31]: 1.73 nM; TGI [5]: > 74.8 µM; TGI [32]: 1.15 nM; TGI [33]: 0.992 nM; TGI [34]: 3 nM and 12.2 nM; GI50 [35]: 0.596 nM; TGI [35]: 3 nM; TGI [36]: 1.27 nM; TGI [37]: 3 nM and 0.407 nM; TGI [38]: 0.193 nM; TGI [7]: 159 µM; TGI [9]: 5.58 nM; TGI [39]: 19.8 nM and 31.9 nM; GI50 [40]: 1.59 nM; TGI [40]: 3 nM; TGI [41]: 3.53 nM; GI50 [42]: 2.16 nM; TGI [42]: 3 nM; GI50 [43]: 4.78 nM; TGI [43]: 3 nM and 0.431 nM; GI50 [44]: 0.892 nM; TGI [44]: 3 nM; GI50 [45]: 2.81 nM; GI50 [10]: 6.15 nM; TGI [46]: 19.7 nM and 40 nM; TGI [47]: 2.62 nM and 0.359 nM; GI50 [12]: 0.383 nM; TGI [12]: 13.6 nM; GI50 [48]: 0.0885 nM; TGI [48]: 12.4 nM; TGI [49]: 1.7 nM; TGI [50]: 3 nM; GI50 [14]: 0.846 nM; GI50 [15]: 3.26 nM; TGI [15]: 3 nM; TGI [51]: 11.5 nM and 31.8 nM; TGI [52]: 24.3 nM
